Laboratory results: ChEMBL document CHEMBL1201862, “PubChem BioAssay data set” (2004)
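Interpolation was linear, between the two tested concentrations surrounding the appropriate level; five concentrations were tested over 48 hours in 96-well plates. GI50: concentration for 50% inhibition of growth.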 The source made the active and inactive calls. No stated cut-off is given here; in the data, active = GI50 up to about 1.1 µM and inactive = higher.

How the values were obtained:
Test in all cases: inhibition of tumour cell growth, NCI panel, 48 h
[1] = test system: 786-0
[2] = test system: A498
[3] = test system: A549
[4] = test system: ACHN
[5] = test system: BT-549
[6] = test system: CAKI-1
[7] = test system: CCRF-CEM
[8] = test system: COLO 205
[9] = test system: DU-145
[10] = test system: EKVX
[11] = test system: HCC 2998
[12] = test system: HCT-116
[13] = test system: HCT-15
[14] = test system: HL-60
[15] = test system: HOP-62
[16] = test system: HOP-92
[17] = test system: HT-29
[18] = test system: Hs-578T
[19] = test system: IGROV-1
[20] = test system: K562
[21] = test system: KM12
[22] = test system: LOX IMVI
[23] = test system: M14
[24] = test system: MCF7
[25] = test system: MDA-MB-231
[26] = test system: MDA-MB-435
[27] = test system: MDA-N
[28] = test system: MOLT-4
[29] = test system: Malme-3M
[30] = test system: NCI-H226
[31] = test system: NCI-H23
[32] = test system: NCI-H460
[33] = test system: NCI-H522
[34] = test system: NCI/ADR-RES
[35] = test system: OVCAR-4
[36] = test system: OVCAR-5
[37] = test system: OVCAR-8
[38] = test system: PC-3
[39] = test system: RPMI-8226
[40] = test system: RXF 393
[41] = test system: SF-268
[42] = test system: SF-295
[43] = test system: SK-MEL-28
[44] = test system: SK-MEL-2
[45] = test system: SK-MEL-5
[46] = test system: SK-OV-3
[47] = test system: SN12C
[48] = test system: SNB-19
[49] = test system: SR
[50] = test system: SW-620
[51] = test system: T47D
[52] = test system: TK-10
[53] = test system: U-251
[54] = test system: UACC-257
[55] = test system: UACC-62
[56] = test system: UO-31
[57] = test system: OVCAR-3
[58] = test system: SF-539

`CC(=O)Nn1c(=S)[nH]c2ccccc21` was tested, and the GI50 [1] was > 100 µM (inactive), the GI50 [2] was > 100 µM (inactive) and the GI50 [3] was > 100 µM (inactive). For the same molecule, the GI50 [4] was > 100 µM (inactive), the GI50 [5] was > 100 µM (inactive) and the GI50 [6] was > 100 µM (inactive). The GI50 [7] was > 100 µM (inactive), the GI50 [8] was > 100 µM (inactive) and the GI50 [9] was > 100 µM (inactive). For the same molecule, the GI50 [10] was > 100 µM (inactive), the GI50 [11] was > 100 µM (inactive) and the GI50 [12] was > 100 µM (inactive). The GI50 [13] was over 100 µM, the GI50 [14] was > 100 µM (inactive) and the GI50 [15] was > 100 µM (inactive). For the same molecule, the GI50 [16] was > 100 µM (inactive), the GI50 [17] was > 100 µM (inactive) and the GI50 [18] was > 100 µM (inactive). For the same molecule, the GI50 [19] was > 100 µM (inactive), the GI50 [20] was > 100 µM (inactive) and the GI50 [21] was > 100 µM (inactive). For the same molecule, the GI50 [22] was > 100 µM (inactive), the GI50 [23] was > 100 µM (inactive) and the GI50 [24] was > 100 µM (inactive). For the same molecule, the GI50 [25] was > 100 µM (inactive), the GI50 [26] was > 100 µM (inactive) and the GI50 [27] was > 100 µM (inactive). The GI50 [28] was > 100 µM (inactive), the GI50 [29] was > 100 µM (inactive) and the GI50 [30] was > 100 µM (inactive). For the same molecule, the GI50 [31] was > 100 µM (inactive), the GI50 [32] was > 100 µM (inactive) and the GI50 [33] was > 100 µM (inactive). The GI50 [34] was > 100 µM (inactive), the GI50 [35] was > 100 µM (inactive) and the GI50 [36] was > 100 µM (inactive). For the same molecule, the GI50 [37] was > 100 µM (inactive), the GI50 [38] was > 100 µM (inactive) and the GI50 [39] was > 100 µM (inactive). The GI50 [40] was > 100 µM (inactive), the GI50 [41] was > 100 µM (inactive) and the GI50 [42] was > 100 µM (inactive). For the same molecule, the GI50 [43] was > 100 µM (inactive), the GI50 [44] was > 100 µM (inactive) and the GI50 [45] was > 100 µM (inactive). For the same molecule, the GI50 [46] was > 100 µM (inactive), the GI50 [47] was > 100 µM (inactive) and the GI50 [48] was > 100 µM (inactive). The GI50 [49] was > 100 µM (inactive), the GI50 [50] was > 100 µM (inactive) and the GI50 [51] was > 100 µM (inactive). The GI50 [52] was > 100 µM (inactive), the GI50 [53] was > 100 µM (inactive) and the GI50 [54] was > 100 µM (inactive). For the same molecule, the GI50 [55] was > 100 µM (inactive) and the GI50 [56] was > 100 µM (inactive).
For `C=C1c2[nH]c3ccccc3c2C2C(CC)C1CCN2C` (stereo not drawn), the GI50 [1] was > 100 µM (inactive), the GI50 [2] was 18.9 µM (inactive) and the GI50 [3] was > 100 µM (inactive). The GI50 [4] was > 100 µM (inactive), the GI50 [5] was > 100 µM (inactive) and the GI50 [6] was > 100 µM (inactive). The GI50 [7] was 54.6 µM (inactive), the GI50 [8] was 16.7 µM (inactive) and the GI50 [9] was > 100 µM (inactive). For the same molecule, the GI50 [10] was 28.4 µM (inactive), the GI50 [11] was 18.5 µM (inactive) and the GI50 [12] was 51.2 µM (inactive). The GI50 [13] was 90.8 µM, the GI50 [14] was 49.1 µM (inactive) and the GI50 [15] was > 100 µM (inactive). The GI50 [16] was 25.6 µM (inactive), the GI50 [17] was 27.8 µM (inactive) and the GI50 [18] was 40.9 µM (inactive). For the same molecule, the GI50 [19] was 15.2 µM (inactive), the GI50 [21] was > 100 µM (inactive) and the GI50 [22] was 49.7 µM (inactive). The GI50 [23] was 19.3 µM (inactive), the GI50 [24] was 56.1 µM (inactive) and the GI50 [25] was 48.4 µM (inactive). The GI50 [26] was 65.9 µM (inactive), the GI50 [27] was 72.8 µM (inactive) and the GI50 [28] was 27.2 µM (inactive). For the same molecule, the GI50 [29] was 24.3 µM (inactive), the GI50 [30] was 6.62 µM (inactive) and the GI50 [31] was > 100 µM (inactive). For the same molecule, the GI50 [32] was 82 µM (inactive), the GI50 [33] was 63.2 µM (inactive) and the GI50 [34] was 42.2 µM (inactive). The GI50 [57] was > 100 µM (inactive), the GI50 [35] was 53.6 µM (inactive) and the GI50 [36] was > 100 µM (inactive). For the same molecule, the GI50 [37] was 53.1 µM (inactive), the GI50 [38] was 32.8 µM (inactive) and the GI50 [39] was 32.5 µM (inactive). The GI50 [40] was > 100 µM (inactive), the GI50 [41] was > 100 µM (inactive) and the GI50 [42] was 55.8 µM (inactive). The GI50 [58] was 92 µM (inactive), the GI50 [43] was 29.5 µM (inactive) and the GI50 [44] was > 100 µM (inactive). For the same molecule, the GI50 [45] was 61.1 µM (inactive), the GI50 [46] was > 100 µM (inactive) and the GI50 [47] was 98.4 µM (inactive). For the same molecule, the GI50 [48] was > 100 µM (inactive), the GI50 [49] was 34.8 µM (inactive) and the GI50 [50] was > 100 µM (inactive). For the same molecule, the GI50 [51] was > 100 µM (inactive), the GI50 [52] was 33.3 µM (inactive) and the GI50 [53] was 79.3 µM (inactive). The GI50 [54] was 26 µM (inactive), the GI50 [55] was 48.4 µM (inactive) and the GI50 [56] was > 100 µM (inactive).
